The target of one experiment is rat MASP2 (Rattus norvegicus (Rat), UniProt Q9JJS8). Put plainly: Biochemical rat MASP2 assay (FRET substrate). The note with it: Average IC50; recombinant rat MASP2; read-out: rat MASP2 IC50. The source says:
The MASP1 or MASP2 expression vectors were transfected into the HEK293 (ATCC No. CRL-1573) cell line using Lipofectamine LTX® Reagent (Thermo-Fischer), as described by the manufacturer. […] The MASP1 and M[…] were purified from the conditioned media by affinity chromatography on Ni-NTA Superflow resin (Qiagen) as described by the manufacturer.

The next experiment has as its target human MASP1 (Homo sapiens (Human), UniProt P48740). The experiment is described as follows: Biochemical human MASP1 assay (FRET substrate). To be noted: Average IC50; recombinant human MASP1; read-out: human MASP1 IC50. The gist of the method: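 Recombinant human MASP1 (aa 297-699, C-terminal His tag, HEK293-expressed, Ni-NTA purified) diluted to 20 nM in 50 mM HEPES pH 8,0, 100 mM NaCl, 0,01% CHAPS, 0.5 mM glutathione, preincubated with compound in DMSO; reaction started with 20 μM ABZ/Dnp FRET substrate solution. Fluorescence (ex 320/em 420 nm) after 60-120 min at 32 C; IC50 from % inhibition.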

A further experiment addresses rat MASP1 (Rattus norvegicus (Rat), UniProt Q8CHN8). Put plainly: Biochemical rat MASP1 assay (FRET substrate). To be noted: Average IC50; recombinant rat MASP1; read-out: rat MASP1 IC50. From the text: A truncated cDNA sequence of rat MASP1encoding the fragment corresponding to the amino acids 302-704 with a C-terminal His Tag and N-terminal Ig-kappa secretion signal (SEQ ID No: 4) was subcloned into the mammalian expression vector pcDNA3.1 (Invitrogen).
The MASP1 or MASP2 expression vectors were transfected into the HEK293 (ATCC No. CRL-1573) cell line using Lipofectamine LTX® Reagent (Thermo-Fischer), as described by the manufacturer. The mature form of the recombinant rat MASP1 and MASP2 proteases were secreted into the culture medium. The MASP1 and MASP2 proteins were purified from the conditioned media by affinity chromatography on Ni-NTA Superflow resin (Qiagen) as described by the manufacturer.
4.2 Biochemical Rat MASP1 Assay.
Recombinant rat MASP1 enzyme produced in the HEK 293 cells was diluted in the reaction buffer (50 mM HEPES pH 8,0; 100 mM NaCl; 0,01% CHAPS; 0.5 mM Gluthathione) to the concentration of 4 nM and 25 μl was transferred into each single well of 384-well white microtiter plate (Greiner Bio One 781075). 1 μl of the inhibitor compound solution (dissolved in DMSO, at the corresponding concentration) or pure DMSO as a control was added to the same wells. The enzymatic reaction was initiated by addition of 25 μl of 40 μM solution of the FRET substrate Dabcyl-[…]-Glu(Edans)-NH2; (Dabcyl-4-((4-(dimethylamino)phenyl)azo)benzoic acid; Edans-5-[(2-Aminoethyl) amino]naphthalene-1-sulfonyl; custom synthesis by Jerini Peptide Technologies, Berlin) in the reaction buffer. The microtiter plate was incubated for 60-120 min at the temperature of 32 C. The increase of fluorescence intensity was measured in appropriate fluorescence plate reader (e.g. TECAN Ultra) using excitation wavelength of 340 nm and emission wavelength of 490 nm. IC50 values were calculated from percentage of inhibition of rat […] activity as a function of test compound concentration.

In experiment [1] the test system is Human C3-DEPOSITION SERUM. Put plainly: C3 deposition assay, human serum on mannan-coated plates. To be noted: Average IC50, read-out: Human C3-DEPOSITION SERUM IC50. Format: biochemical. The gist of the method: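 Plates coated overnight at 4° C with S. cerevisiae mannan (10 μg/mL, pH 9.6), blocked with 1% BSA in TBS 2 h at 37° C; washes in TBS/0.05% Tween 20/5 mM CaCl2. Antibodies diluted in wash buffer with 0.5% BSA. Colorimetric read-out at 450 nm.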

The target in another experiment is human MASP2 (Homo sapiens (Human), UniProt O00187). The experiment is described as follows: Biochemical human MASP2 assay (FRET substrate). The note with it: Average IC50; recombinant human MASP2; read-out: human MASP2 IC50. The gist of the method: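 Mature recombinant human MASP2, expressed in HEK293 and purified by Ni-NTA affinity, was reacted with a DABCYL FRET peptide substrate (added as a 60 μM solution) for 60-120 min at 32 C. Fluorescence increase was read at ex 340/em 490 nm; IC50 was derived from % inhibition versus compound concentration.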
Chain of human MASP2 (O00187 other isoform, or with tags, fused parts or gaps): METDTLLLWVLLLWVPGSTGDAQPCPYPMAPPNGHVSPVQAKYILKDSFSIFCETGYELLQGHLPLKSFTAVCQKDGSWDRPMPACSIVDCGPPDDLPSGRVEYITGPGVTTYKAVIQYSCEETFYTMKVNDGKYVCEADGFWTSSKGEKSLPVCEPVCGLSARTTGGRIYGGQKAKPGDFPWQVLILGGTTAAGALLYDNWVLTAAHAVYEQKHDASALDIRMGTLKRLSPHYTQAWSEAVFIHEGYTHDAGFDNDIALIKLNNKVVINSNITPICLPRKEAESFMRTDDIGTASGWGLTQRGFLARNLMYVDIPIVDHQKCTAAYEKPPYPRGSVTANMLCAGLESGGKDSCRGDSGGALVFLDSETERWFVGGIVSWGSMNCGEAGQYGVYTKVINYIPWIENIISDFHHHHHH

Structures are written as SMILES. Where a SMILES comes first, the peptide text is derived from it. Bridges are numbered along the chain shown (N, C = ends). [ ]: non-standard residue; d: D form. tBuAla = CC(C)(C)C[C@H](N)C(=O)O; Pen = CC(C)(S)[C@H](N)C(=O)O; Ahx = NCCCCCC(=O)O

Chain of rat MASP2 (Q9JJS8 other isoform, or with tags, fused parts or gaps): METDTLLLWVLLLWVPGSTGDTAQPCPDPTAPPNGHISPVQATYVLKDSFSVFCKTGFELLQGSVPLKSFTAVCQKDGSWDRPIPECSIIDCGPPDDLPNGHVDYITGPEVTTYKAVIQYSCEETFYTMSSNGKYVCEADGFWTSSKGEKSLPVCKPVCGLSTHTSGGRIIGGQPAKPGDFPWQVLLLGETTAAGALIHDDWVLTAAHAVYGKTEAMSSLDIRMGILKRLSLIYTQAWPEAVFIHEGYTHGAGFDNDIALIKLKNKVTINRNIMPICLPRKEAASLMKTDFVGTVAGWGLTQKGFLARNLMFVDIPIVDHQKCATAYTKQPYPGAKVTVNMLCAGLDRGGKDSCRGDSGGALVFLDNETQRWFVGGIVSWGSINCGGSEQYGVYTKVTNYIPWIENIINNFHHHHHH
Chain of rat MASP1 (Q8CHN8 other isoform, or with tags, fused parts or gaps): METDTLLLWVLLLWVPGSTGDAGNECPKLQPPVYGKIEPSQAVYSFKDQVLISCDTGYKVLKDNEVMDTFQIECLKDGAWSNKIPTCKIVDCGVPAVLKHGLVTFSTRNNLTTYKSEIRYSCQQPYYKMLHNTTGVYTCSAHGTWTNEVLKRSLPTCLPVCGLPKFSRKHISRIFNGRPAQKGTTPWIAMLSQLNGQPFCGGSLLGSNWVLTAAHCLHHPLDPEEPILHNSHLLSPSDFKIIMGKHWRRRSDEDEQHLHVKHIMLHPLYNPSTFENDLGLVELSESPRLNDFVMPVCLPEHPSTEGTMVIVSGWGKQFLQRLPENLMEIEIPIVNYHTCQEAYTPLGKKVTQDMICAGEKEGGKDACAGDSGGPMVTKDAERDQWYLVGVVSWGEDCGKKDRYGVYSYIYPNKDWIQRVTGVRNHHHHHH
Chain of human MASP1 (P48740 other isoform, or with tags, fused parts or gaps): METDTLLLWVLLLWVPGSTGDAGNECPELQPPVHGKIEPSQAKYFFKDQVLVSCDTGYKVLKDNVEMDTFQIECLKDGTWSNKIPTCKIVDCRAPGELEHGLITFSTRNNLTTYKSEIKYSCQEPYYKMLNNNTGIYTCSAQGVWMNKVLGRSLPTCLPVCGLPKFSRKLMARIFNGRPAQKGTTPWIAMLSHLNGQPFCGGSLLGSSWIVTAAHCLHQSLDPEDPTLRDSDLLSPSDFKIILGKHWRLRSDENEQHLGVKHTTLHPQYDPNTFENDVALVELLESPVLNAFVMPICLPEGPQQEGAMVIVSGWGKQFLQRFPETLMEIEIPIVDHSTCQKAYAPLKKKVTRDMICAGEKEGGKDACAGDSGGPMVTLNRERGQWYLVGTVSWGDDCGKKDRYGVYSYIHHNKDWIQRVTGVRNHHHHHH

With `CC[C@H](C)[C@@H]1NC(=O)CCCNC(=O)[C@H](CC(=O)O)NC(=O)[C@@H]2CCCN2C(=O)[C@H]([C@@H](C)CC)NC(=O)[C@H]2NC(=O)[C@H]([C@@H](C)CC)NC(=O)[C@@H]3CCCN3C(=O)[C@@H]3CCCN3C(=O)[C@H](CC(C)(C)C)NC(=O)[C@H](CO)NC(=O)[C@H](CCCNC(=N)N)NC(=O)[C@H](CO)NC(=O)[C@H](CSSC2(C)C)NC1=O` [Example 35], the IC50 on rat MASP2 is 24 nM; on human MASP1 it was 4.1 nM; on rat MASP1 it was 63 nM; in experiment [1], 3.3 nM; at human MASP2, 17 nM.
On the same counts, the results for `CC[C@H](C)[C@@H]1NC(=O)CNC(=O)CNC(=O)[C@H](C)NC(=O)[C@@H](CC(=O)O)NC(=O)[C@@H]2CCCN2C(=O)[C@H]([C@@H](C)CC)NC(=O)[C@H]2NC(=O)[C@H]([C@@H](C)CC)NC(=O)[C@@H]3CCCN3C(=O)[C@@H]3CCCN3C(=O)[C@H](CC(C)(C)C)NC(=O)[C@H](CO)NC(=O)[C@H](CCCNC(=N)N)NC(=O)[C@H](CO)NC(=O)[C@H](CSSC2(C)C)NC1=O` [Example 39] (cyclo(AGGICSRS[tBuAla]PPI[Pen]IP[dD]); disulfide 5-13) are 8 nM, 6 nM, 44 nM, 33.6 nM and 75 nM.
Turning to `CC[C@H](C)[C@@H]1NC(=O)CCCCCNC(=O)[C@H]([C@@H](C)CC)NC(=O)[C@H]2NC(=O)[C@H]([C@@H](C)CC)NC(=O)[C@@H]3CCCN3C(=O)[C@@H]3CCCN3C(=O)[C@H](CC(C)(C)C)NC(=O)[C@H](CO)NC(=O)[C@H](CCCNC(=N)N)NC(=O)[C@H](CO)NC(=O)[C@H](CSSC2(C)C)NC1=O` [Example 52, N-{3-[(5aS,11S,14S,17S,20S,23R,26S,36S,39R,42S,44aS)-26,36,42-tri[(2S)-butan-2-yl]-11-(2,2-dimethylpropyl)-14,20-bis(hydroxymethyl)-45,45-dimethyl-5,10,13,16,19,22,25,28,35,38,41,44-dodecaoxodotetracontahydro-1H,5H-23,39-(methanodithiomethano)dipyrrolo[2,1-1:2′,1′-o][1,4,7,10,13,16,19,22,25,28,31,34]dodecaazacyclotetracontin-17-yl]propyl}guanidine] (cyclo([Ahx]ICSRS[tBuAla]PPI[Pen]I); disulfide 3-11), the IC50 at rat MASP2 stood at 11.6 nM; on human MASP1, 7.9 nM; at rat MASP1 it was 79 nM; in experiment [1], 23.7 nM; at human MASP2 it was 9.3 nM.
In the case of `CC[C@H](C)[C@@H]1NC(=O)[C@H](C)NC(=O)CCCCCNC(=O)[C@@H]2CCCN2C(=O)[C@H]([C@@H](C)CC)NC(=O)[C@H]2NC(=O)[C@H]([C@@H](C)CC)NC(=O)[C@@H]3CCCN3C(=O)[C@@H]3CCCN3C(=O)[C@H](CC(C)(C)C)NC(=O)[C@H](CO)NC(=O)[C@H](CCCNC(=N)N)NC(=O)[C@H](CO)NC(=O)[C@H](CSSC2(C)C)NC1=O` [Example 53, N-{3-[(6S,9S,12S,15S,18R,21S,24S,33aS,39S,42R,45S,47aS,52aS)-21,39,45-tri[(2S)-butan-2-yl]-6-(2,2-dimethylpropyl)-9,15-bis(hydroxymethyl)-24,53,53-trimethyl-5,8,11,14,17,20,23,26,33,38,41,44,47,52-tetradecaoxopentacontahydro-1H,5H-18,42-(methanodithiomethano)tripyrrolo[2,1-c:2′,1′-o:2″,1″-r][1,4,7,10,13,16,19,22,25,28,31,34,37,40]tetradecaazacyclohexatetracontin-12-yl]propyl}guanidine] (cyclo(AICSRS[tBuAla]PPI[Pen]IP[Ahx]); disulfide 3-11), the IC50 was 19 nM on rat MASP2; 6.75 nM at human MASP1; 96 nM on rat MASP1; 44.5 nM in experiment [1]; 83.5 nM at human MASP2.

The IC50 is the point on the concentration scale where inhibition reaches its midpoint.

For the origin of these results see patent US20240010684A1, “MASP INHIBITORY COMPOUNDS AND USES THEREOF” (BAYER AKTIENGESELLSCHAFT, priority 2020, published 2024).
